The values that follow come from patent US8987474B2 (University of South Florida, priority 2006, dated 2015).

In general, IC50 refers to the concentration that gives 50% inhibition. Read a low IC50 as inhibition by little substance.

SMILES strings stand for the structures.

In one experiment the target is Shp2 (Homo sapiens (Human), UniProt Q06124). The experiment in a line: PTP activity assay (DiFMUP substrate) with GST-Shp2. Format: biochemical. As to conditions: Table II, Shp2. The source says: All constructs were verified by DNA sequencing.
Sequence of Shp2 (Q06124 205-593): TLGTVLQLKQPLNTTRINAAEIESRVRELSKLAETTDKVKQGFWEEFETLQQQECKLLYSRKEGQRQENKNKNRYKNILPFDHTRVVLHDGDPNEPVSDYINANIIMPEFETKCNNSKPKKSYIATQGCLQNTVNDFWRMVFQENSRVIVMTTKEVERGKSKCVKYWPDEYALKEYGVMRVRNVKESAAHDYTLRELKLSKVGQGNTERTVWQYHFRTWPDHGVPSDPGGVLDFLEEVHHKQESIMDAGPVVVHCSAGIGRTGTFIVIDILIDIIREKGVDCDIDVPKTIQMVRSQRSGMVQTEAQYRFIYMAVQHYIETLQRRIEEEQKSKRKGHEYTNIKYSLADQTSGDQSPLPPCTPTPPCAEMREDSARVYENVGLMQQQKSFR
Recombinant DEP1 was from Abcam.
With `O=C1Nc2ccccc2/C1=N/Nc1ccccc1[N+](=O)[O-]` [HL1-047], the IC50 is 33 to 100 µM.
On the same count and under the same terms, as for `O=C1Nc2ccccc2/C1=N/Nc1ccccc1Cl` [HL1-050-1], the figure is 33 to 100 µM.
The compound `O=C1Nc2ccc(S(=O)(=O)O)cc2/C1=N/Nc1ccccc1Cl` [HL1-058-1] returned an IC50 of 33 to 100 µM.
Same read-out and setting: as for `O=C1Nc2ccc(S(=O)(=O)O)cc2/C1=N/Nc1cccc([N+](=O)[O-])c1` [HL1-058-2], the figure is 33 to 100 µM; as for `O=C1Nc2ccc(S(=O)(=O)O)cc2/C1=N/Nc1nc2ccccc2s1` [HL1-058-3], 33 to 100 µM.
Still for that read-out and setting: in the case of `COC(=O)c1cc(NC(=O)c2ccc3cc(C(=O)OC)ccc3c2)cc(C(=O)OC)c1` [HL2-026-Intermediate] it was 33 to 100 µM; in that of `CN(C)S(=O)(=O)c1ccc2c(c1)/C(=N/Nc1ccccc1[N+](=O)[O-])C(=O)N2` [RPM124, 3-[(2-Nitrophenyl)hydrazono]-2-oxo-2,3-dihydro-1H-indole-5-sulfonic acid dimethylamide], 33 to 100 µM.
Still for that read-out and setting: in the case of `O=C1Nc2ccc(S(=O)(=O)NCc3ccccn3)cc2/C1=N/Nc1ccccc1[N+](=O)[O-]` [RPM135, 3-[(2-Nitrophenyl)hydrazono]-2-oxo-2,3-dihydro-1H-indole-5-sulfonic acid (pyridin-2-ylmethyl)amide] it was 33 to 100 µM.

Still in this experiment, the particulars now being: at 20 μM.
For `O=C1Nc2ccc(C(=O)O)cc2/C1=N/Nc1ccccc1[N+](=O)[O-]` [HL2-054], the “% PTP activity” value was 60.57% (1) at 20 μM.
Consider `CCN(CC)C(=O)c1ccc2c(c1)/C(=N/Nc1ccccc1C(=O)O)C(=O)N2` [HL2-070-1], for which the “% PTP activity” value is recorded as 100.18% (1) at 20 μM.
With `CCN(CC)C(=O)c1ccc2c(c1)/C(=N/Nc1cccc(C(=O)O)c1)C(=O)N2` [HL2-070-2], the “% PTP activity” value is 57.16% (1) at 20 μM.
As to `CCN(CC)C(=O)c1ccc2c(c1)/C(=N/Nc1ccccc1[N+](=O)[O-])C(=O)N2` [HL2-070-3], the “% PTP activity” value is on record as 14 ± 2% (2) at 20 μM.
In the case of `O=C1Nc2ccc(C(=O)NCc3ccc(Cl)cc3)cc2/C1=N/Nc1ccccc1C(=O)O` [HL2-070-4], the “% PTP activity” value is given as 30 ± 4% (2) at 20 μM.
On the same count and under the same terms, in the case of `CC(C)NC(=O)c1ccc2c(c1)/C(=N/Nc1ccccc1C(=O)O)C(=O)N2` [HL2-070-6] it was 78.87% (1) at 20 μM; in that of `CC(C)NC(=O)c1ccc2c(c1)/C(=N/Nc1cccc(C(=O)O)c1)C(=O)N2` [HL2-070-7], 53.62% (1) at 20 μM; in that of `O=C1Nc2ccc(C(=O)NCc3ccc(Cl)cc3)cc2/C1=N/Nc1cccc(C(=O)O)c1` [HL2-070-9], 25 ± 2% (2) at 20 μM.

Staying with this experiment, now noted: concentration not given.
As to `O=C1Nc2ccccc2/C1=N/Nc1ccccc1[N+](=O)[O-]` [HL1-047], the “% PTP activity” value is listed as 93 ± 9% (3).
Same read-out and setting: as for `O=C1Nc2ccccc2/C1=N/Nc1ccccc1Cl` [HL1-050-1], the figure is 99 ± 2% (3); as for `O=C1Nc2ccccc2/C1=N/Nc1cccc([N+](=O)[O-])c1` [HL1-050-2], 32 ± 3% (3); as for `O=C1Nc2ccc(S(=O)(=O)O)cc2/C1=N/Nc1ccccc1Cl` [HL1-058-1], 69 ± 9% (2).
For `O=C1Nc2ccc(S(=O)(=O)O)cc2/C1=N/Nc1cccc([N+](=O)[O-])c1` [HL1-058-2], the “% PTP activity” value was 73 ± 7% (3).
With `O=C1Nc2ccc(S(=O)(=O)O)cc2/C1=N/Nc1nc2ccccc2s1` [HL1-058-3], the “% PTP activity” value is on record as 46 ± 4% (3).
On to `CN(C)S(=O)(=O)c1ccc2c(c1)/C(=N/Nc1ccccc1Cl)C(=O)N2` [HL2-016-1], for which the “% PTP activity” value is on record as 36 ± 11% (12).
Take `COc1ccc(CNS(=O)(=O)c2ccc3c(c2)/C(=N/Nc2ccccc2Cl)C(=O)N3)cc1` [HL2-016-3]: the “% PTP activity” value is recorded as 84 ± 24% (6).
With `O=C1Nc2ccc(S(=O)(=O)NCc3ccc(Cl)cc3)cc2/C1=N/Nc1ccccc1Cl` [HL2-016-4], the “% PTP activity” value is 32 ± 17% (12).
`COc1cccc(CNS(=O)(=O)c2ccc3c(c2)/C(=N/Nc2ccccc2Cl)C(=O)N3)c1` [HL2-016-5]: the “% PTP activity” value is 51 ± 4% (6).
Still for that read-out and setting: as for `O=C1Nc2ccc(S(=O)(=O)NCc3cccs3)cc2/C1=N/Nc1ccccc1Cl` [HL2-016-6], the figure is 51 ± 3% (6).
On to `O=C1Nc2ccc(S(=O)(=O)NCc3ccccn3)cc2/C1=N/Nc1ccccc1Cl` [HL2-016-7], for which the “% PTP activity” value is listed as 41 ± 23% (12).
On the same count and under the same terms, in the case of `O=C1Nc2ccc(S(=O)(=O)NCN3CCOCC3)cc2/C1=N/Nc1ccccc1Cl` [HL2-016-8] it was 41 ± 4% (6); in that of `CCCNS(=O)(=O)c1ccc2c(c1)/C(=N/Nc1ccccc1Cl)C(=O)N2` [HL2-016-9], 48 ± 1% (6); in that of `CC(C)CNS(=O)(=O)c1ccc2c(c1)/C(=N/Nc1ccccc1Cl)C(=O)N2` [HL2-016-10], 36 ± 17 (12) %.
On the same count and under the same terms, as for `O=C1Nc2ccc(S(=O)(=O)NCc3ccco3)cc2/C1=N/Nc1ccccc1Cl` [HL2-016-11], the figure is 55 ± 7% (6).
On the same count and under the same terms, as for `COCCNS(=O)(=O)c1ccc2c(c1)/C(=N/Nc1ccccc1Cl)C(=O)N2` [HL2-016-12], the figure is 32 ± 3% (6); as for `CCC(C)NS(=O)(=O)c1ccc2c(c1)/C(=N/Nc1ccccc1Cl)C(=O)N2` (centres unmarked) [HL2-016-13], 35 ± 4% (6); as for `O=C1Nc2ccc(S(=O)(=O)NCC3CCCO3)cc2/C1=N/Nc1ccccc1Cl` (centres unmarked) [HL2-016-14], 42 ± 5% (6).
As to `O=C1Nc2ccc(S(=O)(=O)NCc3ccncc3)cc2/C1=N/Nc1ccccc1Cl` [HL2-016-15], the “% PTP activity” value was 48 ± 5% (6).
Regarding `CN(Cc1ccccc1)S(=O)(=O)c1ccc2c(c1)/C(=N/Nc1ccccc1Cl)C(=O)N2` [HL2-016-16], the “% PTP activity” value is 64 ± 12% (6).
On the same count and under the same terms, as for `O=C1Nc2ccc(S(=O)(=O)NCc3cccnc3)cc2/C1=N/Nc1ccccc1Cl` [HL2-016-18], the figure is 78 ± 10% (6).
For `CN(C)CCNS(=O)(=O)c1ccc2c(c1)/C(=N/Nc1ccccc1Cl)C(=O)N2` [HL2-016-19], the “% PTP activity” value is listed as 89 ± 3% (6).
In the case of `O=C1Nc2ccc(S(=O)(=O)NCc3cccnc3)cc2/C1=N/Nc1ccccc1[N+](=O)[O-]` [HL2-016-20], the “% PTP activity” value is 68 ± 8% (6).
On to `CN(C)CCCNS(=O)(=O)c1ccc2c(c1)/C(=N/Nc1ccccc1[N+](=O)[O-])C(=O)N2` [HL2-016-21], for which the “% PTP activity” value was 77 ± 2% (6).
The same measure, in the same setting: as for `CN(C)CCCNS(=O)(=O)c1ccc2c(c1)/C(=N/Nc1ccccc1Cl)C(=O)N2` [HL2-016-22], the figure is 80 ± 0.7% (6); as for `NS(=O)(=O)c1ccc2c(c1)/C(=N/Nc1ccccc1Cl)C(=O)N2` [HL2-016.2], 40 ± 8% (12).
On to `CCOC(=O)c1cccc(NC(=O)c2ccc3cc(C(=O)OC)ccc3c2)c1` [HL2-022-1-Intermediate], for which the “% PTP activity” value is reported as 68 ± 20% (7).
For the compound `O=C(O)c1cccc(NC(=O)c2ccc3cc(C(=O)O)ccc3c2)c1` [HL2-022-1], the “% PTP activity” value was 53 ± 4% (6).
Still for that read-out and setting: as for `O=C(O)c1ccc2cc(C(=O)Nc3cccc(S(=O)(=O)O)c3)ccc2c1` [HL2-022-2], the figure is 52 ± 17% (5).
As for `COC(=O)c1cc(NC(=O)c2ccc3cc(C(=O)OC)ccc3c2)cc(C(=O)OC)c1` [HL2-026-Intermediate], the “% PTP activity” value is 40 ± 4% (6).
Still for that read-out and setting: as for `O=C(O)c1cc(NC(=O)c2ccc3cc(C(=O)O)ccc3c2)cc(C(=O)O)c1` [HL2-026], the figure is 87 ± 14% (6); as for `O=C1C=CC2C(=C1O)Oc1c(ccc(O)c1O)C2C1CCCCC1C(=O)O` (centres unmarked) [NSC-119910, reference compound], 0.56 ± 0.1% (3); as for `CN(C)S(=O)(=O)c1ccc2c(c1)/C(=N/Nc1ccccc1[N+](=O)[O-])C(=O)N2` [RPM124, 3-[(2-Nitrophenyl)hydrazono]-2-oxo-2,3-dihydro-1H-indole-5-sulfonic acid dimethylamide], 52 ± 5% (6).
Same read-out and setting: in the case of `O=C1Nc2ccc(S(=O)(=O)NCc3ccccn3)cc2/C1=N/Nc1ccccc1[N+](=O)[O-]` [RPM135, 3-[(2-Nitrophenyl)hydrazono]-2-oxo-2,3-dihydro-1H-indole-5-sulfonic acid (pyridin-2-ylmethyl)amide] it was 47 ± 10% (12); in that of `CN(Cc1ccccc1)S(=O)(=O)c1ccc2c(c1)/C(=N/Nc1ccccc1[N+](=O)[O-])C(=O)N2` [RPM136, 3-[(2-Nitrophenyl)hydrazono]-2-oxo-2,3-dihydro-1H-indole-5-sulfonic acid benzyl-methylamide], 39 ± 8% (12); in that of `COc1cccc(CNS(=O)(=O)c2ccc3c(c2)/C(=N/Nc2ccccc2[N+](=O)[O-])C(=O)N3)c1` [RPM137, 3-[(2-Nitrophenyl)hydrazono]-2-oxo-2,3-dihydro-1H-indole-5-sulfonic acid 3-methoxybenzylamide], 31 ± 4% (12).
For `COc1ccc(CNS(=O)(=O)c2ccc3c(c2)/C(=N/Nc2ccccc2[N+](=O)[O-])C(=O)N3)cc1` [RPM138, 3-[(2-Nitrophenyl)hydrazono]-2-oxo-2,3-dihydro-1H-indole-5-sulfonic acid 4-methoxybenzylamide], the “% PTP activity” value is 36 ± 4% (6).
Consider `O=C1Nc2ccc(S(=O)(=O)NCc3cccs3)cc2/C1=N/Nc1ccccc1[N+](=O)[O-]` [RPM140, 3-[(2-Nitrophenyl)hydrazono]-2-oxo-2,3-dihydro-1H-indole-5-sulfonic acid (thiophen-2-ylmethyl)amide], for which the “% PTP activity” value is 37 ± 4% (6).
On to `O=C1Nc2ccc(S(=O)(=O)NCc3ccncc3)cc2/C1=N/Nc1ccccc1[N+](=O)[O-]` [RPM145, 3-[(2-Nitrophenyl)hydrazono]-2-oxo-2,3-dihydro-1H-indole-5-sulfonic acid (pyridin-4-ylmethyl)amide], for which the “% PTP activity” value is 37 + 11% (12).
Still for that read-out and setting: in the case of `CN(C)CCNS(=O)(=O)c1ccc2c(c1)/C(=N/Nc1ccccc1[N+](=O)[O-])C(=O)N2` [RPM146, 3-[(2-Nitrophenyl)hydrazono]-2-oxo-2,3-dihydro-1H-indole-5-sulfonic acid (2-dimethylaminoethyl)amide] it was 57 ± 6% (6); in that of `CN1C(=O)/C(=N\Nc2ccccc2[N+](=O)[O-])c2cc(S(=O)(=O)N(C)C)ccc21` [RPM154], 73 ± 3% (6); in that of `CN(C)S(=O)(=O)c1ccc2c(c1)/C(=N/Nc1ccccc1[N+](=O)[O-])C(=O)N2Cc1ccccc1` [RPM156], 34 ± 4% (12).
The same measure, in the same setting: as for `O=C1Nc2ccc(S(=O)(=O)NCc3ccco3)cc2/C1=N/Nc1ccccc1[N+](=O)[O-]` [RPM168, 3-[(2-Nitrophenyl)hydrazono]-2-oxo-2,3-dihydro-1H-indole-5-sulfonic acid (furan-2-ylmethyl)amide], the figure is 42 + 4% (6); as for `CCCNS(=O)(=O)c1ccc2c(c1)/C(=N/Nc1ccccc1[N+](=O)[O-])C(=O)N2` [RPM170, 3-[(2-Nitrophenyl)-hydrazono]-2-oxo-2,3-dihydro-1H-indole-5-sulfonic acid propylamide], 43 ± 8% (12).
Still for that read-out and setting: as for `COCCNS(=O)(=O)c1ccc2c(c1)/C(=N/Nc1ccccc1[N+](=O)[O-])C(=O)N2` [RPM171, 3-[(2-Nitrophenyl)hydrazono]-2-oxo-2,3-dihydro-1H-indole-5-sulfonic acid (2-methoxyethyl)amide], the figure is 44 ± 8% (12).
